Data set [1] can be described thus: Photophysical properties of dyes in various solvents (absorbance, emission, quantum yield). Format: physicochemical. Also on record: ε × F / ε × Φ: unit not given here. As to the method: Analytical grade reagents were purchased from major suppliers. […] Emission and excitation spectra were obtained using a Spex Fluorolog 2 spectrofluorometer at 23° C. […] Demas et al., J. Phys. […] All operations with dyes were performed under dim light. Flasks containing dyes were wrapped with aluminum foil.

Data set [2] is described as follows: Dye photo-bleaching under tungsten lamp irradiation. Format: physicochemical. As to the method:
Photo-bleaching. All samples contained 1 mM dye in a final volume of 10 mL. For nitrogen and oxygen saturation the samples were bubbled with solvent-saturated gas for 30 min. A 90 W halogen tungsten lamp was employed for irradiation, with a fan used for cooling. The temperature of samples was 25±1° C. during reactions. The absorption spectrum of each sample was measured before irradiation and after every 10 h period. For the trapping experiment thioanisole (1.0 M) was added to oxygen-saturated butanol solution of dye 1b. After 60 h of irradiation the reaction mixture was analyzed by GC-MS for products formed. The products, methylphenylsulfoxide and methylphenyl sulfone, were identified by comparison with authentic samples.
Dyes used in living cells must be photostable to provide many sequential images and to obtain sufficient light from minimal amounts of exogenous labeled material. The photostability of the new dyes was characterized by exposing them to constant illumination from a tungsten lamp filtered through glass, a broad spectrum light source that provided essentially equal intensity throughout the spectral range where the dyes would be irradiated in vivo. A fan was used to prevent heating, and dye solutions were adjusted for equal maximal absorbance, kept below 1 μM to minimize the inner filter effect. […] Photo-bleaching followed first-order kinetics in all cases.

Regarding `CCN1\C(=C/C=C/C=C2/C(=O)c3ccccc3S2(=O)=O)Sc2ccccc21` [dye 2a, (2Z)-2-[(2E,4E)-4-(3-Ethyl-1,3-benzothiazol-2(3H)-ylidene)but-2-enylidene]-1-benzothiophen-3(2H)-one 1,1-Dioxide], the “Abs. λmax” value in data set [1] (solvent BuOH) worked out at 604 nm; in data set [1] (solvent C6H6), 591 nm; in data set [1] (solvent DMF), 602 nm; in data set [1] (solvent MeOH), 598 nm; in data set [1] (solvent OcOH), 606 nm. The “Emission λmax” value in data set [1] (solvent BuOH) was found to be 622 nm; in data set [1] (solvent C6H6) it was 617 nm; in data set [1] (solvent DMF), 619 nm; in data set [1] (solvent MeOH), 617 nm; in data set [1] (solvent OcOH) it was 623 nm. For the same molecule, the “Φ (quantum yield of fluorescence)” value was 0.12 in data set [1] (solvent BuOH); 0.16 in data set [1] (solvent C6H6); 0.22 in data set [1] (solvent DMF); 0.05 in data set [1] (solvent MeOH); 0.17 in data set [1] (solvent OcOH). Also, the “ε (molar extinction coefficient)” value in data set [1] (solvent BuOH) is given as “(163000)”; in data set [1] (solvent C6H6), “(152000)”; in data set [1] (solvent DMF), “(173000)”; in data set [1] (solvent MeOH), “(143000)”; in data set [1] (solvent OcOH), “(168000)”. Moreover, the “ε × F” value in data set [1] (solvent BuOH) turned out to be 20000; in data set [1] (solvent C6H6), 24000; in data set [1] (solvent DMF), 38000; in data set [1] (solvent MeOH) it was 7000; in data set [1] (solvent OcOH) it was 29000. In addition, the “Absolute rate constant of dye photo-bleaching, kph × 10^6” value worked out at 5.2 s^−1 in data set [2] (BuOH) and 3.0 s^−1 in data set [2] (MeOH).

Take `O=C(CI)Nc1ccc2c(c1)S/C(=C/C=C/C=C1/C(=O)c3ccccc3S1(=O)=O)N2CCCS(=O)(=O)[O-].[Na+]` [dye 2e, Sodium 3-[(2E)-6-[(Iodoacetyl)amino]-2-[(2E,4Z)-4-(1,1-dioxido-3-oxo-1-benzothien-2(3H)-ylidene)but-2-enylidene]-1,3-benzothiazol-3(2H)-yl]propane-1-sulfonate]: in data set [1] (reactive forms, solvent BuOH), the “Emission λmax” value was 636 nm, the “absorption λmax” value is 618 nm, the “Φ (quantum yield of fluorescence)” value came to 0.06 and the “ε (molar extinction coefficient)” value is “(160000)”. For the same molecule, in data set [1] (reactive forms, solvent BuOH), the “ε × Φ” value is listed as 9600. Moreover, in data set [1] (reactive forms, solvent H2O), the “Emission λmax” value is 618 nm. Also, in data set [1] (reactive forms, solvent MeOH), the “Emission λmax” value is 628 nm, the “absorption λmax” value came out at 610 nm, the “Φ (quantum yield of fluorescence)” value is 0.034 and the “ε (molar extinction coefficient)” value is listed as “(140000)”. The “ε × Φ” value in data set [1] (reactive forms, solvent MeOH) was 3000.

`O=C(CSCCO)Nc1ccc2c(c1)S\C(=C/C=C/C=C1/C(=O)c3ccccc3S1(=O)=O)N2CCCS(=O)(=O)[O-].[Na+]` [dye 2g, Sodium 3-[(2Z)-6-({[(2-Hydroxyethyl)thio]acetyl}amino)-2-[(2E,4Z)-4-(1,1-dioxido-3-oxo-1-benzothien-2(3H)-ylidene)but-2-enylidene]-1,3-benzothiazol-3(2H)-yl]propane-1-sulfonate]: in data set [1], the “quantum yield after reaction with β-mercaptoethanol relative to underivatized fluorophore” value is listed as “returned the quantum yield of S—SO to that of the underivatized fluorophore”. In data set [1] (reactive forms, solvent MeOH), the “Emission λmax” value is reported as 629 nm, the “absorption λmax” value worked out at 610 nm, the “Φ (quantum yield of fluorescence)” value worked out at 0.054 and the “ε (molar extinction coefficient)” value was “(138000)”. Besides, in data set [1] (reactive forms, solvent MeOH), the “ε × Φ” value is 8000.

As to `CC1(C)/C(=C/C=C/C=C2/C(=O)c3ccccc3S2(=O)=O)N(CCCS(=O)(=O)[O-])c2ccc(NC(=O)CI)cc21.[Na+]` [dye 4e, Sodium 3-{(2Z)-5-[(Iodoacetyl)amino]-2-[(2E,4Z)-4-(1,1-dioxido-3-oxo-1-benzothien-2(3H)-ylidene)but-2-enylidene]-3,3-dimethyl-2,3-dihydro-1H-indol-1-yl}propane-1-sulfonate], in data set [1] (reactive forms, solvent BuOH), the “Emission λmax” value is 639 nm, the “absorption λmax” value was found to be 607 nm, the “Φ (quantum yield of fluorescence)” value is 0.06 and the “ε (molar extinction coefficient)” value is “(150000)”. For the same molecule, the “ε × Φ” value in data set [1] (reactive forms, solvent BuOH) worked out at 9000. For the same molecule, in data set [1] (reactive forms, solvent H2O), the “Emission λmax” value is listed as 630 nm, the “absorption λmax” value is on record as 599 nm, the “Φ (quantum yield of fluorescence)” value was determined as 0.004 and the “ε (molar extinction coefficient)” value is recorded as “(143000)”. In data set [1] (reactive forms, solvent H2O), the “ε × Φ” value was determined as 600. Further, in data set [1] (reactive forms, solvent MeOH), the “Emission λmax” value was determined as 634 nm, the “absorption λmax” value is listed as 601 nm, the “Φ (quantum yield of fluorescence)” value was 0.01 and the “ε (molar extinction coefficient)” value is “(138000)”. Moreover, the “ε × Φ” value in data set [1] (reactive forms, solvent MeOH) is 1400.

As to `CN(C(=O)COCC(=O)ON1C(=O)CCC1=O)c1ccc2c(c1)C(C)(C)/C(=C/C=C/C=C1/C(=O)c3ccccc3S1(=O)=O)N2CCCS(=O)(=O)[O-].[Na+]` [dye 4f, Sodium 3-{(2Z)-5-[({2-[(2,5-Dioxopyrrolidin-1-yl)oxy]-2-oxoethoxy}acetyl)methylamino]-2-[(2E,4Z)-4-(1,1-dioxido-3-oxo-1-benzothien-2(3H)-ylidene)but-2-enylidene]-3,3-dimethyl-2,3-dihydro-1H-indol-1-yl}propane-1-sulfonate], in data set [1] (reactive forms, solvent BuOH), the “Emission λmax” value turned out to be 623 nm, the “absorption λmax” value stood at 590 nm, the “Φ (quantum yield of fluorescence)” value turned out to be 0.19 and the “ε (molar extinction coefficient)” value was “(134000)”. The “ε × Φ” value in data set [1] (reactive forms, solvent BuOH) came out at 26000. In addition, in data set [1] (reactive forms, solvent H2O), the “Emission λmax” value was determined as 616 nm, the “absorption λmax” value is listed as 594 nm, the “Φ (quantum yield of fluorescence)” value came out at 0.01 and the “ε (molar extinction coefficient)” value is “(150000)”. Besides, in data set [1] (reactive forms, solvent H2O), the “ε × Φ” value is 1500. In data set [1] (reactive forms, solvent MeOH), the “Emission λmax” value came out at 620 nm, the “absorption λmax” value came to 586 nm, the “Φ (quantum yield of fluorescence)” value worked out at 0.05 and the “ε (molar extinction coefficient)” value is “(140000)”. In addition, the “ε × Φ” value in data set [1] (reactive forms, solvent MeOH) amounted to 7000.

In the case of `CC1(C)\C(=C/C=C/C=C2/C(=O)c3ccccc3S2(=O)=O)N(CCCS(=O)(=O)[O-])c2ccc(NC(=O)CSCCO)cc21.[Na+]` [dye 4g, Sodium 3-{(2E)-5-({[(2-Hydroxyethyl)thio]acetyl}amino)-2-[(2E,4Z)-4-(1,1-dioxido-3-oxo-1-benzothien-2(3H)-ylidene)but-2-enylidene]-3,3-dimethyl-2,3-dihydro-2,3-dihydro-1H-indol-1-yl}propane-1-sulfonate], the “quantum yield after reaction with β-mercaptoethanol relative to underivatized fluorophore” value in data set [1] was “half that of the unaltered fluorophore”. In addition, in data set [1] (reactive forms, solvent BuOH), the “Emission λmax” value came out at 628 nm, the “absorption λmax” value is reported as 609 nm, the “Φ (quantum yield of fluorescence)” value is 0.12 and the “ε (molar extinction coefficient)” value is “(142000)”. Moreover, the “ε × Φ” value in data set [1] (reactive forms, solvent BuOH) is recorded as 17000. Further, in data set [1] (reactive forms, solvent H2O), the “Emission λmax” value came to 620 nm, the “absorption λmax” value stood at 600 nm, the “Φ (quantum yield of fluorescence)” value turned out to be 0.02 and the “ε (molar extinction coefficient)” value is listed as “(140000)”. Further, the “ε × Φ” value in data set [1] (reactive forms, solvent H2O) is on record as 3000. Moreover, in data set [1] (reactive forms, solvent MeOH), the “Emission λmax” value is on record as 621 nm, the “absorption λmax” value amounted to 601 nm, the “Φ (quantum yield of fluorescence)” value turned out to be 0.04 and the “ε (molar extinction coefficient)” value is “(140000)”. In addition, the “ε × Φ” value in data set [1] (reactive forms, solvent MeOH) was 6000.

Regarding “Sodium 3-[(2E)-6-[({2-[(2,5-Dioxopyrrolidin-1-yl)oxy]-2-oxoethoxy}-acetyl)methylaminol]-2-[(2E,4Z)-4-(1,1-dioxido-3-oxo-1-benzothien-2(3H)-ylidene)but-2-enylidene]-1,3-benzothiazol-3(2H)-yl]propane-1-sulfonate [dye 2f]”, in data set [1] (reactive forms, solvent BuOH), the “Emission λmax” value is 626 nm, the “absorption λmax” value stood at 608 nm, the “Φ (quantum yield of fluorescence)” value came to 0.12 and the “ε (molar extinction coefficient)” value was “(134000)”. Moreover, in data set [1] (reactive forms, solvent H2O), the “Emission λmax” value was 618 nm. Also, in data set [1] (reactive forms, solvent MeOH), the “Emission λmax” value is given as 621 nm, the “absorption λmax” value is 603 nm, the “Φ (quantum yield of fluorescence)” value is 0.06 and the “ε (molar extinction coefficient)” value is “(142000)”.

For the origin of these results see US7592188B2, “Live cell biosensors” (The Scripps Research Institute, priority 2004, dated 2009).
